Test results as given in the CheMixHub drug solubility set.

Experiment: xn = mol fraction of the nth substance listed, in the solute-free solvent

O=C(O)CC(O)C(=O)O (stereo not drawn) + C1CCOC1 + CC#N
solubility (g/100 g solution)
Conditions | 278.15 K | 283.15 K | 288.15 K | 293.15 K | 298.15 K | 303.15 K | 308.15 K | 313.15 K | 318.15 K | 323.15 K
x2 = 0.1246 | 19.5 | 21.2 | 23.2 | 25.3 | 26.9 | 29.2 | 31.6 | 34.1 | 36.6 | 39.6
x2 = 0.1961 | 27.1 | 28.6 | 30.5 | 32.5 | 34.7 | 37.1 | 39.2 | 41.7 | 44.3 | 47
x2 = 0.2751 | 29.8 | 32 | 34 | 36 | 38 | 40.2 | 42.3 | 45 | 47.2 | 49.9
x2 = 0.3628 | 33.2 | 34.9 | 36.9 | 38.9 | 40.9 | 43 | 45.1 | 47.7 | 49.9 | 52.5
x2 = 0.4606 | 34.6 | 36 | 37.8 | 39.7 | 41.5 | 43.5 | 45.9 | 48.1 | 50.5 | 53.4
x2 = 0.5705 | 35.7 | 37.3 | 39.1 | 41.1 | 43.2 | 45.5 | 47.8 | 50.2 | 52.9 | 55.6
x2 = 0.6949 | 37.8 | 39 | 40.6 | 42.3 | 44.3 | 46 | 48.3 | 50.3 | 52.7 | 55.5

Cc1c(Br)cccc1C(=O)O + C1CCOC1 + CCOC(C)=O
solubility (g/100 g solution)
Conditions | x2 = 0.161 | x2 = 0.318 | x2 = 0.471 | x2 = 0.62 | x2 = 0.765 | x2 = 0.907
278.15 K | 11.6 | 16.7 | 21.6 | 26.2 | 30 | 35
283.15 K | 12.9 | 18.1 | 23.4 | 28.1 | 32 | 37.2
288.15 K | 14.2 | 19.7 | 24.9 | 29.9 | 33.8 | 39.1
293.15 K | 15.4 | 21.3 | 26.6 | 31.7 | 35.6 | 41.2
298.15 K | 16.9 | 22.7 | 28.2 | 33.4 | 37.3 | 43
303.15 K | 18.3 | 24.4 | 30 | 35.3 | 39 | 44.9
308.15 K | 19.8 | 26 | 31.6 | 36.9 | 40.6 | 46.5
313.15 K | 21.6 | 27.6 | 33.3 | 38.6 | 42.1 | 48.1
318.15 K | 23.4 | 29.4 | 35.1 | 40.2 | 43.6 | 49.6
323.15 K | 25.3 | 31.3 | 36.7 | 41.8 | 44.9 | 51.1
328.15 K | 27.6 | 33.3 | 38.5 | 43.6 | 46.2 | 52.5

O=C(O)CC(O)C(=O)O (stereo not drawn) + C1CCOC1 + CCOC(C)=O
solubility (g/100 g solution)
Conditions | 278.15 K | 283.15 K | 288.15 K | 293.15 K | 298.15 K | 303.15 K | 308.15 K | 313.15 K | 318.15 K | 323.15 K
x2 = 0.234 | 9.32 | 10.1 | 11 | 12 | 13.2 | 14.4 | 15.8 | 17.2 | 18.6 | 20.4
x2 = 0.3437 | 13.6 | 14.7 | 15.9 | 17.2 | 18.7 | 20.4 | 22.1 | 24 | 26.1 | 28.7
x2 = 0.4489 | 19.3 | 20.5 | 21.8 | 23.2 | 24.7 | 26.3 | 27.9 | 29.9 | 31.9 | 34.2
x2 = 0.55 | 24.6 | 26 | 27.6 | 29 | 30.8 | 32.7 | 34.6 | 36.6 | 39.2 | 41.8
x2 = 0.647 | 27.6 | 28.9 | 30.5 | 32.2 | 34.2 | 36.3 | 38.4 | 40.8 | 43.5 | 46.4
x2 = 0.7403 | 30.1 | 31.8 | 33.3 | 34.9 | 36.9 | 38.8 | 40.9 | 43.3 | 46 | 48.7
x2 = 0.8302 | 34.8 | 36 | 37.7 | 39 | 40.7 | 42.6 | 44.4 | 46.4 | 48.7 | 51.4

CN1CCN(C2=Nc3cc(Cl)ccc3Nc3ccccc32)CC1 + C1CCOC1 + Cc1ccccc1
solubility (g/100 g solution)
Conditions | x2 = 0.1243 | x2 = 0.242 | x2 = 0.3539 | x2 = 0.4601 | x2 = 0.5602 | x2 = 0.6569 | x2 = 0.749 | x2 = 0.8361 | x2 = 0.9197
293.15 K | 3.93 | 5.65 | 8.04 | 9.98 | 13 | 15.3 | 17.5 | 20.9 | 23.9
298.15 K | 4.3 | 6.76 | 8.83 | 11.7 | 14.2 | 16.5 | 20.5 | 22.2 | 25.6
303.15 K | 5.04 | 7.34 | 9.84 | 13.1 | 15.8 | 18.8 | 21.9 | 25 | 28.1
308.15 K | 6.11 | 8.39 | 11.2 | 14.4 | 17.5 | 20.6 | 24 | 26 | 29.8
313.15 K | 7.2 | 9.63 | 12.2 | 16.4 | 19.5 | 22.7 | 25.9 | 29 | 31.9
318.15 K | 8.19 | 10.7 | 14.6 | 18.1 | 21.4 | 24.9 | 27.9 | 30.5 | 33.7
323.15 K | 8.82 | 12.2 | 15.9 | 20.1 | 23.6 | 27 | 29.6 | 33.1 | 36.6

CC(=O)N1CCN(c2ccc(OCC3COC(Cn4ccnc4)(c4ccc(Cl)cc4Cl)O3)cc2)CC1 (stereo not drawn) + C1COCCO1 + O
solubility (g/100 g solution)
Conditions | x2 = 0.02222 | x2 = 0.04865 | x2 = 0.0806 | x2 = 0.12 | x2 = 0.1698 | x2 = 0.2348 | x2 = 0.3231 | x2 = 0.45 | x2 = 0.648
293.15 K | 0.00759 | 0.0327 | 0.155 | 0.537 | 2.07 | 6.72 | 16.6 | 22.9 | 18.7
298.15 K | 0.00818 | 0.0386 | 0.171 | 0.692 | 2.58 | 8.67 | 18.8 | 25.4 | 20.6
303.15 K | 0.00845 | 0.0485 | 0.197 | 0.87 | 3.25 | 10.9 | 21.1 | 27.8 | 22.6
308.15 K | 0.00894 | 0.0594 | 0.216 | 1.04 | 4.24 | 13.4 | 24.4 | 29.9 | 24.3
313.15 K | 0.00948 | 0.07 | 0.25 | 1.3 | 5.11 | 16 | 27.2 | 32.5 | 26.7

O=C(O)CC(O)C(=O)O (stereo not drawn) + CC#N + CCCCOC(C)=O
solubility (g/100 g solution)
Conditions | 278.15 K | 283.15 K | 288.15 K | 293.15 K | 298.15 K | 303.15 K | 308.15 K | 313.15 K | 318.15 K | 323.15 K
x2 = 0.4143 | 1.23 | 1.39 | 1.63 | 1.79 | 2.06 | 2.36 | 2.73 | 3.15 | 3.71 | 4.37
x2 = 0.5481 | 1.54 | 1.77 | 2.1 | 2.45 | 2.86 | 3.39 | 3.96 | 4.62 | 5.41 | 6.44
x2 = 0.6535 | 2.05 | 2.38 | 2.8 | 3.32 | 3.93 | 4.61 | 5.48 | 6.51 | 7.78 | 9.24
x2 = 0.7389 | 2.71 | 3.15 | 3.56 | 4.05 | 4.88 | 5.66 | 6.77 | 7.85 | 9.29 | 11.2
x2 = 0.8093 | 3.25 | 3.73 | 4.29 | 4.93 | 5.81 | 6.58 | 7.95 | 9.34 | 10.9 | 13.2
x2 = 0.8685 | 3.84 | 4.31 | 4.89 | 5.73 | 6.8 | 8.05 | 9.49 | 11.3 | 13.5 | 15.8
x2 = 0.9188 | 4.19 | 4.92 | 5.74 | 6.72 | 8.05 | 9.62 | 11.4 | 13.7 | 16.4 | 19.4

CN1CCN(C2=Nc3cc(Cl)ccc3Nc3ccccc32)CC1 + CC#N + O
solubility (g/100 g solution)
Conditions | x2 = 0.04651 | x2 = 0.0989 | x2 = 0.1583 | x2 = 0.2264 | x2 = 0.3051 | x2 = 0.397 | x2 = 0.506 | x2 = 0.6372 | x2 = 0.798
278.15 K | 0.00519 | 0.0208 | 0.0473 | 0.113 | 0.207 | 0.366 | 0.609 | 0.903 | 1.23
283.15 K | 0.00691 | 0.0265 | 0.0589 | 0.138 | 0.248 | 0.431 | 0.707 | 1.04 | 1.39
288.15 K | 0.00905 | 0.034 | 0.0735 | 0.168 | 0.296 | 0.507 | 0.817 | 1.18 | 1.55
293.15 K | 0.0119 | 0.0432 | 0.0905 | 0.2 | 0.347 | 0.589 | 0.938 | 1.34 | 1.73
298.15 K | 0.0151 | 0.0532 | 0.111 | 0.238 | 0.41 | 0.682 | 1.08 | 1.5 | 1.95
303.15 K | 0.0193 | 0.0662 | 0.135 | 0.283 | 0.481 | 0.794 | 1.22 | 1.7 | 2.16
308.15 K | 0.0247 | 0.0831 | 0.164 | 0.336 | 0.558 | 0.91 | 1.39 | 1.92 | 2.39
313.15 K | 0.0308 | 0.101 | 0.197 | 0.398 | 0.642 | 1.05 | 1.56 | 2.11 | 2.64
318.15 K | 0.0384 | 0.123 | 0.233 | 0.465 | 0.746 | 1.19 | 1.75 | 2.37 | 2.91
323.15 K | 0.0473 | 0.15 | 0.281 | 0.542 | 0.855 | 1.35 | 1.96 | 2.63 | 3.2
328.15 K | 0.059 | 0.178 | 0.335 | 0.625 | 0.985 | 1.53 | 2.18 | 2.9 | 3.49
